Results as given in patent US11993594B2, “IRAK inhibitors and method for making and using” (Rigel Pharmaceuticals, Inc., priority 2016, dated 2024).
Read-outs that look alike come from different tables or passages of the source.

Experiments:
[1] = system: LPS induced IL-23 (p19/p40) in DC cells; experiment: IL23-p19 ELISA, dendritic (DC) cells differentiated from human PBMC, LPS stimulated; assay type: cell-based; settings: LPS 1 μg/ml, 18 hours, 10 pt
Method: Compound Screening Using DC Cells
Human PBMC cells (400 million) obtained from the vendor were transferred into a T-175 flask containing 15 ml RPMI media (10% FBS) and incubate for 2 hours at 37° C. After 2 hours, the media including floating cells was aspirated out carefully and 12 ml of fresh RPMI media (10% FBS) containing GMCSF (100 ng/ml) and IL4 (20 ng/ml) was added, and the flask was kept in a 37° C. incubator for 7 days.
After 3 days, fresh GMCSF (100 ng/ml) and IL4 (20 ng/ml) were added to the flask and the incubation continued. After 7 days, the fully differentiated cells were harvested by spinning down (1200 rpm/5 min) and aspirating the media. The cells were suspended in fresh RPMI media (10% FBS) containing 50 ng/ml IFNγ (1000 U/ml) and then plated (50K/well in 100 μl) onto a white clear bottom 96 well plate and left in a 37° C. incubator for 24 hours.
After 24 hours incubation, 100 μl of RPMI media was added containing 2× concentrated test compound per well to the above cell-culture media (final concentration becomes 1×) and the plates were pre-incubated for 1 hour at 37° C. before stimulating with LPS.
After 1 hour compound pre-incubation, 10 μl per well of 20× concentrated LPS solution in RPMI media was added to give a final concentration of 1 μg/ml. The mixture was shaken and incubated the plates at 37° C. for an additional 18 hours.
155 μl of the supernatant was harvested from each well carefully (without the tip touching the bottom of the well) and to the remaining 50 μl/well of the cell culture plate was added 50 μl of Cell Titer Glo reagent. The mixture was incubated for 1-2 minutes on a shaker and the plate was read for luminescence intensity to determine the compound cytotoxicity. The cell culture supernatant collected above was used to carry out IL23 ELISA (65 μl—Supernatant) and IL10 ELISA (90 μl—Supernatant) as described below.
Human IL-23 (p19/p40) ELISA Protocol (e-Biosciences)
To 10.5 ml PBS add 50 μl of anti-IL23 (p19) was added capture antibody (2.5 μg/ml). The mixture was mixed well and 100 μl of the coating solution was added to each well of the 96 well white plates from Pierce. The wells were covered and incubated overnight at 4° C.
The anti-IL23 (p19)-antibody-coated plates were washed 2× using TBST (use plate washer) and blocked using 200 μl of 0.5% Casein for 1.5 to 2 hours at room temperature with shaking.
The plates were washed 2× using TBST and the supernatant was transferred (65 μl/well) to the above pre-blocked/IL23(p19)-antibody-coated 96 well plate, and incubated at room temperature for 1.5 hours with shaking.
The plates were washed 4× using TBST (plate washer) and 100 μl/well detection antibody solution prepared from 2 μl of biotin labeled anti-IL-12 (p40/p70) antibody in 11 ml 1% BSA/PBS solution (1-5000 dilution) was added. The plates were incubated for 1 hour with shaking at Room temperature.
Again, the plates were washed 4× with TBST and 100 μl of HRP labeled Streptavidin (R&D Systems) solution (10 μl/10 ml 1% BSA solution) was added, and the plates were incubated at room temperature for another 45 minutes with shaking.
After 45 minutes, the plates were washed with TBST 4× and 100 μl/well Super Signal ELISA Pico Chemiluminescent Substrate from Pierce (3.5 ml A+3.5 ml B+3.5 ml MQ water) was added. The plates were shaken for 1-2 minutes then read on a plate reader. […]

[2] = system: LPS Induced IL23p19 in THP-1 Cells; experiment: LPS Induced IL23p19 in THP-1 Cells (with IFNγ Primed) Assay; assay type: cell-based, human; settings: THP-1 cells primed with IFNγ 50 ng/mL, LPS 1 ug/mL, 18 hours, 10 pt, read-out: IL23-p19 ELISA, THP1-IFNγ, LPS, 10 pt EC50
Description: LPS Induced IL23p19 in THP-1 Cells (with IFNγ Primed) Assay
THP-1 Cells (ATCC, Cat #TIB-202), Dimethyl Sulfoxide (DMSO) (Sigma-Aldrich, Cat #D2650), RPMI 1640 (Cellgro, Cat #10-040-CM), Fetal Bovine Serum (Sigma, Cat #F4135), Albumin From Bovine Serum (BSA) (Sigma-Aldrich, Cat #A7906), LPS (Serotype K-235, Sigma, Product Number L 2143), IFNγ (Peprotech, Cat #300-02) Capture antibody: Human IL-23p19 ELISA (e-Bioscience, Cat. #14-7238-85), Detection antibody: Primary Mouse Biotinylated anti-human IL-12(p40/p70) (e-Bioscience, Cat. #13-7129-85), Secondary HRP-conjugated Streptavidin (R&D Systems, Cat #DY998), 1×PBST Washing Buffer (PBS-Tween tablet) (VWR International, Cat #80058-558), ELISA Blocking Buffer (PBS with 1% BSA), ELISA Dilution Buffer (PBS with 1% BSA), 384 Well Flat-Bottom, MaxiSorp Black Immuno Plates (Thermo Scientific, Cat #12-565-346), 384 Well Flat-Bottom, White Tissue Culture Plates (Thermo Scientific, Cat #12-565-343), Super Signal ELISA Pico Chemiluminescent Substrate (Thermo Scientific, Cat #37070), Cell Titer Glo reagent (Promega, Cat #G7573), Positive control, IKK2VI inhibitor (Calbiochem, Cat #401483), AquaMax 4000 plate washer (Molecular Devices), Luminometer, Wallac Victor2 1420 Multilabel Counter.
On day 1, 50K/well THP-1 cells were seeded and primed with IFNγ (50 ng/mL) in 384-well plates for about 18 hours in RPMI media with 10% FBS. On day 2, the compound was serially diluted in DMSO from 5 mM in 3-fold dilutions, and then diluted 1:125 in RPMI media with 10% FBS. 50 μL/well 2× compound was added to 50 μL/well THP-1 cells (with IFNγ primed) in duplicate in 384 well tissue culture plates. The cells were pre-incubated with compound for 1 hour at 37° C., 5% CO2 before addition of 10 μL/well 11×LPS to give a final concentration of 1 ug/mL LPS. Day 3, after stimulation for 18 hours at 37° C., 5% CO2, the assay plate was centrifuged and 70 μL/well supernatant was harvested. IL-23p19 protein in 70 µL/well of supernatant was measured by sandwich ELISA, and 25 μl/well Cell Titer Glo reagent was added to the remaining cells to measure compound toxicity.
Human IL-23p19 Sandwich ELISA:
Maxisorp immuno ELISA plates were pre-coated with 25 μL/well of anti-IL-23p19 capture antibody (2.5 ug/mL) in PBS overnight at room temperature. After washing with 1×PBST, the plates were blocked using 100 μL/well of 1% BSA in PBS for 2 hours at room temperature. The plates were washed three times with 1×PBST and 70 μL/well supernatant were added. The plates were incubated at room temperature for 2 hours with shaking and washed three times with 1×PBST. 25 μL/well of biotin labeled anti-IL-12(p40/p70) detection antibody (100 ng/mL) in PBS with 1% BSA was added and the plates were incubated at room temperature for 2 hours with shaking. After washing three times with 1×PBST, 25 μL/well of streptavidin-HRP (1:200) in PBS with 1% BSA was added and the plates were incubated at room temperature for 20 minutes with shaking. The plates were washed three times with 1×PBST and 25 μL/well of Super Signal ELISA Pico Chemiluminescent Substrate were added. The plates were read with a luminometer, and the chemiluminescence values were entered into Athena (Rigel) for curve fitting, EC50 calculation, and database storage. […]

Row | EC50 ([1]; Table 1, IFNγ 50 ng/ml) | EC50 ([1]; Table 2, IFNγ 50 ng/ml) | EC50 ([2]; Table 1) | EC50 ([2]; Table 2) | EC50 ([2]; Homo sapiens, Table 1) | EC50 ([1]; Table 3, IFNγ 50 ng/ml) | EC50 ([2]; Table 3) | Compound
1 | 179 nM | 179 nM | 25.4 nM | 25.4 nM | – | – | – | O=C(Nc1cn([C@H]2CC[C@H](O)CC2)nc1-c1nc(F)ccc1F)c1coc(-c2cn[nH]c2)n1 [Compound I-11, N-(3-(3,6-difluoropyridin-2-yl)-1-((1r,4r)-4-hydroxycyclohexyl)-1H-pyrazol-4-yl)-2-(1H-pyrazol-4-yl)oxazole-4-carboxamide]
2 | 20.1 nM | 20.1 nM | 6.3 nM | 6.3 nM | – | – | – | O=C(Nc1cn([C@H]2CC[C@H](N3CCOCC3)CC2)nc1-c1cccc(C(F)F)n1)c1coc(-c2cn[nH]c2)n1 [Compound I-4, N-(3-(6-(difluoromethyl)pyridin-2-yl)-1-((1r,4r)-4-morpholinocyclohexyl)-1H-pyrazol-4-yl)-2-(1H-pyrazol-4-yl)oxazole-4-carboxamide]
3 | 6.5 nM | – | – | – | 2.8 nM | – | – | O=C(Nc1cn(C2CCC(N3CCOCC3)CC2)nc1-c1cnccn1)c1coc(-c2cn[nH]c2)n1 (centres unmarked) [Compound I-30, N-(1-((1r,4r)-4-morpholinocyclohexyl)-3-(pyrazin-2-yl)-1H-pyrazol-4-yl)-2-(1H-pyrazol-4-yl)oxazole-4-carboxamide]
4 | – | – | – | – | – | 36.9 nM | 43.4 nM | CCO[C@H]1C[C@@H](n2cc(NC(=O)c3coc(-c4cn[nH]c4)n3)c(-c3ccccn3)n2)C1 [Compound I-22, N-(1-((1s,3s)-3-ethoxycyclobutyl)-3-(pyridin-2-yl)-1H-pyrazol-4-yl)-2-(1H-pyrazol-4-yl)oxazole-4-carboxamide]
5 | 207 nM | – | – | – | 976 nM | – | – | CCO[C@H]1CC[C@H](n2cc(NC(=O)c3coc(-c4cn[nH]c4)n3)c(-c3cc(F)cc(F)n3)n2)CC1 [Compound I-29, N-(3-(4,6-difluoropyridin-2-yl)-1-((1r,4r)-4-ethoxycyclohexyl)-1H-pyrazol-4-yl)-2-(1H-pyrazol-4-yl)oxazole-4-carboxamide]
6 | 7640 nM | 7640 nM | 187 nM | 187 nM | – | – | – | CCOC1CCC(n2cc(NC(=O)c3coc(-c4cnn(COP(=O)(O)O)c4)n3)c(-c3nc(F)ccc3F)n2)CC1 (centres unmarked) [Compound I-8, sodium (4-(4-((3-(3,6-difluoropyridin-2-yl)-1-((1r,4r)-4-ethoxycyclohexyl)-1H-pyrazol-4-yl)carbamoyl)oxazol-2-yl)-1H-pyrazol-1-yl)methyl phosphate]
7 | 417 nM | 417 nM | 204 nM | 204 nM | – | – | – | CCO[C@H]1CC[C@H](n2cc(NC(=O)c3coc(-c4cn[nH]c4F)n3)c(-c3cnccn3)n2)CC1 [Compound I-32, N-(1-((1r,4r)-4-ethoxycyclohexyl)-3-(pyrazin-2-yl)-1H-pyrazol-4-yl)-2-(5-fluoro-1H-pyrazol-4-yl)oxazole-4-carboxamide]
8 | 2400 nM | 2400 nM | 177 nM | 177 nM | – | – | – | CCO[C@H]1CC[C@H](n2cc(NC(=O)c3coc(-c4cnn(COP(=O)(O)O)c4)n3)c(-c3nc(F)ccc3F)n2)CC1 [Compound I-12, (4-(4-((3-(3,6-difluoropyridin-2-yl)-1-((1r,4r)-4-ethoxycyclohexyl)-1H-pyrazol-4-yl)carbamoyl)oxazol-2-yl)-1H-pyrazol-1-yl)methyl dihydrogen phosphate]
9 | 973 nM | – | – | – | 688 nM | – | – | CCO[C@H]1CC[C@H](n2cc(NC(=O)c3coc(-c4cn[nH]c4)n3)c(-c3nc(C(F)(F)F)ccc3F)n2)CC1 [Compound I-31, N-(1-((1r,4r)-4-ethoxycyclohexyl)-3-(3-fluoro-6-(trifluoromethyl)pyridin-2-yl)-1H-pyrazol-4-yl)-2-(1H-pyrazol-4-yl)oxazole-4-carboxamide]
10 | 10.2 nM | 10.2 nM | 12 nM | 12 nM | – | – | – | C[C@@H]1CN(C2CCC(n3cc(NC(=O)c4coc(-c5cn[nH]c5)n4)c(-c4cccc(C(F)F)n4)n3)CC2)C[C@H](C)O1 (stereo partly drawn) [Compound I-5, N-(3-(6-(difluoromethyl)pyridin-2-yl)-1-((1R,4r)-4-((2R,6S)-2,6-dimethylmorpholino)cyclohexyl)-1H-pyrazol-4-yl)-2-(1H-pyrazol-4-yl)oxazole-4-carboxamide]
